Measurements taken from patent publication US5726153A, “Synthetic peptides for arterial imaging” (New England Deaconess Hospital Corporation, priority 1995, dated 1998).
“Also recorded” adds a separate entry of the source. Ends that are not written are not given here.

Experiments:
[1] = system: balloon de-endothelialized healing abdominal aorta; assay: Focal accumulation at vascular injury, onlay autoradiography of excised aorta, balloon de-endothelialized rabbit; type: in vivo, New Zealand white rabbits
Experimental: The peptides described herein were assayed for their ability to target sites of vascular injury as follows. Male New Zealand white rabbits (2 to 3 kg each) were obtained from ARI Breeding Labs, West Bridgewater, Mass. To induce vascular injury, their abdominal aortas were denuded of endothelium by a modification of the Baumgartner technique (Fischman et al., Arteriosclerosis 7:361, 1987). Briefly, after each animal was anesthetized with ketamine and ether or, alternatively, with xylazine (20 mg/ml) and Ketalar (50 mg/ml), the left femoral artery was isolated; a 4F Fogarty embolectomy catheter (Model 12-040-4F, Edwards Laboratories Incorporated, Santa Anna, Calif.) was introduced through an arterotomy in the femoral artery and was advanced under fluoroscopic visualization to the level of the diaphragm. The catheter was inflated to a pressure of about 3 psi above the balloon inflation pressure with radiographic contrast medium (Conray, Mallinkrodt, St. Louis, Mo.). Three passes were made through the abdominal aorta with the inflated catheter to remove the aortic endothelium before removal of the catheter, ligation of the femoral artery, and closure of the wound. The animals were allowed to heal for a period of 4 to 5 weeks before injection of the labelled synthetic peptides.
(§1) Each labelled synthetic peptide preparation (containing, for example, 150 to 400 or more μCi of ^125 I-labelled peptide) in column elution buffer was injected into the marginal ear vein of the ballooned and healing New Zealand white rabbits or WHHL rabbits. Serial blood samples were obtained from the opposite ear during the ensuing 0-24 hours and were analyzed for radioactivity. The labelled peptide concentrations in the blood samples that were withdrawn over the first 10 minutes after injection were extrapolated to zero time to determine the time zero radioactivity in the calculation of average plasma radioactivity. […] Peptides SP15a, SP17, SP19a, SP21a, SP28, SP34a, and SP30 were cleared rapidly from the plasma with half-lives of about one minute or less; after one hour, the plasma levels were less than 10% of the injected dose and fell by an additional 1% over the next three hours. Peptides SP15a, SP17, SP21a, SP28, SP34a, and SP30 leveled off to a plasma level of 3-6%; peptide SP19a cleared more quickly and leveled off to a concentration of 0.3% (at four hours).
One to twenty-four hours after injection of the labelled synthetic peptide preparations, each animal was injected intravenously with 4 ml of a 0.5% solution of Evans blue dye (Allied Chemical Company, National Aniline Division, NY, N.Y.) which stains areas of de-endothelialized aorta blue. After 30 minutes, the animal was sacrificed by a lethal injection of pentobarbital. After sacrifice, the aorta was removed completely, washed in saline, and fixed in 10% trichloroacetic acid.
The washed and fixed aortas from the animals that had been injected with radiolabelled synthetic peptide were opened along the ventral surface. These segments were then pinned out, fixed for 2 hours in 10% trichloroacetic acid, and photographed. The fixed, opened vessels were then covered with a single layer of plastic (Saran) wrap, placed on high speed x-ray film (Kodak Orthofilm OH-1), and stored for 3 days to 4 weeks in a Kodak "X-Omatic cassette" (24×30 cm) at -70° C. before development in a 90 second X-OMAT.

[2] = Plasma decay of 125I-labelled synthetic peptide after intravenous injection; type: in vivo, rabbit; settings: for plasma level leveled off to / plasma level after one hour: 125I-labelled peptide, intravenous, rabbit; for additional fall of plasma level over the next three hours: from one to four hours after injection
Experimental: as §1

anti-SP-4 antiserum = assay: ELISA cross-reactivity: peptide-coated plates treated with anti-SP-4 antiserum; type: binding, rabbit; settings: FIG. 4
Experimental: To produce anti-synthetic peptide antisera, purified synthetic peptide was dissolved in PBS, pH 7.4 at a concentration of 1 mg/ml. The peptide solution was mixed with an equal volume of complete Freund's adjuvant and vortexed thoroughly until a thick emulsion was produced. New Zealand White rabbits (Millbrook Farms, Amherst, Mass.) were injected with a total of 0.5 mg synthetic peptide administered subcutaneously in the four dorsal quadrants. The rabbits were given a boost (injected at the same sites) with 0.5 mg peptide emulsified in incomplete Freund's adjuvant 2-3 weeks later. Eight to ten days after the first boost, the animals were given a second, identical boost and were bled of 30 ml 8 to 10 days later.
To test for immunological cross-reactivity microtiter plates (Immulon II Dynatech Labs, Chantilly, Va.) were coated with the purified synthetic peptide or LDL by an overnight incubation at 4° C. with 100 ng peptide per well in 50 mM carbonate, pH 9.6, and blocked for nonspecific binding with an additional overnight incubation with phosphate-buffered saline, pH 7.4 (PBS), 1% bovine serum albumin (BSA). Control wells were coated with BSA alone. After washing twice with PBS, the wells were filled with serial dilutions (1:10 to 1:100,000 made in PBS, 3% BSA) of a rabbit polyclonal antibody generated against the synthetic peptide(s) and incubated for 45 minutes at room temperature. Following thorough washing (3× with PBS, 0.1% BSA), the wells were filled with a 1:2000 dilution of goat anti-rabbit IgG-horseradish peroxidate conjugate (Atlantic Antibodies, Scarborough, Me.). After a final wash, the wells were filled with 3,3'-5,5'- tetramethybenzidine (TMB) microwell peroxidase substrate (Kirkegaard and Perry Labs, Gaithersburg, Md.) and read at 650 nm every two minutes on an ELISA-5 automated plate reader (Physica, New York, N.Y.). Results (see, e.g., FIGS. 4 and 5) are expressed as the initial velocity of substrate conversion (change in OD650 /hr), which is determined by a linear regression of 15 data points per well. Each data point represents the average of three measured data points from the same plate, run at the same time.

[3] = system: atherosclerotic lesions of the aorta; assay: Focal accumulation at atherosclerotic lesions, onlay autoradiography of excised aorta, WHHL rabbit; type: in vivo, Watanabe Heritable Hyperlipemic (WHHL) rabbits; settings: FIG. 7
Experimental: Watanabe Heritable Hyperlipemic (WHHL) rabbits were also used as animal models. They were obtained from the WHHL Rabbit Program of the National Heart Lung and Blood Institute (Bethesda, Md.) at about 3 months of age and weighing about 1.5 kg. The animals were raised until they were 3-4 kg in weight.
as §1, with “hours). […]” for “hours).”

Substance: Ac-YAKFRETLEDTRDRMY-NH2 [SP-15a, CH3 CONH-Tyr-Ala-Lys-Phe-Arg-Glu-Thr-Leu-Glu-Asp-Thr-Arg-Asp-Arg-Met-Tyr-CONH2]
- localization of 125I-labelled peptide on onlay autoradiograph of the aorta [1]: accumulated focally at the leading edges of regenerating endothelial tissue
- plasma level leveled off to [2]: 3-6%
- plasma level after one hour [2]: less than 10 % of the injected dose
- additional fall of plasma level over the next three hours [2]: 1%

Substance: Ac-YRALVDTEFKVKQEAGAK-NH2 [SP-21a, CH3 CONH-Tyr-Arg-Ala-Leu-Val-Asp-Thr-Glu-Phe-Lys-Val-Lys-Gln-Glu-Ala-Gly-Ala-Lys-CONH2]
- localization of 125I-labelled peptide on onlay autoradiograph of the aorta [1]: accumulated focally at the leading edges of regenerating endothelial tissue
- plasma level leveled off to [2]: 3-6%
- plasma level after one hour [2]: less than 10 % of the injected dose
- additional fall of plasma level over the next three hours [2]: 1%

Substance: Ac-YRALVDTLKFVTEQAKGA-NH2 [SP-19a, CH3 CONH-Tyr-Arg-Ala-Leu-Val-Asp-Thr-Leu-Lys-Phe-Val-Thr-Glu-Gln-Ala-Lys-Gly-Ala-CONH2]
- localization of 125I-labelled peptide on onlay autoradiograph of the aorta [1]: accumulated focally at the leading edges of regenerating endothelial tissue
- plasma level after one hour [2]: less than 10 % of the injected dose
- plasma concentration leveled off to ([2]; at four hours): 0.3%
- additional fall of plasma level over the next three hours [2]: 1%

Substance: Ac-YVLDEFREKLNEELEALKQK-NH2 [SP-34a]
- localization of 125I-labelled peptide on onlay autoradiograph of the aorta [1]: accumulated focally at the leading edges of regenerating endothelial tissue
- plasma level leveled off to [2]: 3-6%
- plasma level after one hour [2]: less than 10 % of the injected dose
- additional fall of plasma level over the next three hours [2]: 1%

Substance: CH3 CONH-Tyr-Arg-Ala-Leu-Val-Asp-Thr-Leu-Lys-CONH2 (Ac-YRALVDTLK-NH2) [SP-14A, modified counterpart of SP-14]
- binding of anti-SP-4 antiserum to the peptide (anti-SP-4 antiserum): bind

Substance: CH3 CONH-Tyr-Arg-Ala-Leu-Val-Asp-Thr-Leu-Lys-Phe-Val-Thr-Gln-Ala-Glu-Gly-Ala-Lys-CONH2 (Ac-YRALVDTLKFVTQAEGAK-NH2) [SP-4A, modified counterpart of SP-4]
- binding of anti-SP-4 antiserum to the peptide (anti-SP-4 antiserum): bind

Substance: CH3 CONH-Tyr-Arg-Ala-Leu-Val-Asp-Tyr-Leu-Lys-Phe-Val-Thr-Gln-Leu-CONH2 (Ac-YRALVDYLKFVTQL-NH2) [SP-12A, modified counterpart of SP-12]
- binding of anti-SP-4 antiserum to the peptide (anti-SP-4 antiserum): bind

Substance: CH3 CONH-Tyr-Lys-Leu-Ala-Leu-Glu-Ala-Ala-Arg-Leu-Leu-Ala-Asn-Ala-Glu-Gly-Ala-Lys-CONH2 (Ac-YKLALEAARLLANAEGAK-NH2) [SP-8A, modified counterpart of SP-8]
- binding of anti-SP-4 antiserum to the peptide (anti-SP-4 antiserum): bind

Substance: CH3 CONH-Tyr-Lys-Leu-Ala-Leu-Glu-Ala-Ala-Arg-Leu-Leu-Ala-Asp-Ala-Glu-Gly-Ala-Lys-CONH2 (Ac-YKLALEAARLLADAEGAK-NH2) [SP-6A, modified counterpart of SP-6]
- binding of anti-SP-4 antiserum to the peptide (anti-SP-4 antiserum): bind

Substance: H2 N-Tyr-Lys-Leu-Ala-Leu-Glu-Ala-Ala-Arg-Leu-Leu-Ala-Asn-Ala-Glu-Gly-Ala-Lys- CONH2 (H-YKLALEAARLLANAEGAK-NH2) [SP-8, conservatively substituted SP-4]
- binding of anti-SP-4 antiserum to the peptide (anti-SP-4 antiserum): bind

Substance: H2 N-Tyr-Lys-Leu-Ala-Leu-Glu-Ala-Ala-Arg-Leu-Leu-Ala-Asp-Ala-Glu-Gly-Ala-Lys- CONH2 (H-YKLALEAARLLADAEGAK-NH2) [SP-6, conservatively substituted SP-4]
- binding of anti-SP-4 antiserum to the peptide (anti-SP-4 antiserum): bind

Substance: NH2 -Tyr-Arg-Ala-Leu-Val-Asp-Thr-Leu-Lys-Phe-Val-Thr-Gln-Ala-Glu-Gly-Ala-Lys-CONH2 (H-YRALVDTLKFVTQAEGAK-NH2) [SP-4]
- binding of anti-SP-4 antiserum to the peptide (anti-SP-4 antiserum): bind
- localization of 125I-labelled peptide on onlay autoradiograph of the aorta [1]: clear-cut localization of the synthetic peptide on the image at the healing (re-endothelizing) edge of the aortic lesions; also recorded: labelled healing lesions
- localization of 125I-labelled peptide on onlay autoradiograph of the aorta [3]: clearly correspond to the radioactively-labelled lesions; also recorded: localizes at atherosclerotic lesions

Substance: YAALDLNAVANKIADFEL-NH2 [SP-17, H2 N-Tyr-Ala-Ala-Leu-Asp-Leu-Asn-Ala-Val-Ala-Asn-Lys-Ile-Ala-Asp-Phe-Glu-Leu- CONH2]
- localization of 125I-labelled peptide on onlay autoradiograph of the aorta [1]: accumulated focally at the leading edges of regenerating endothelial tissue
- plasma level leveled off to [2]: 3-6%
- plasma level after one hour [2]: less than 10 % of the injected dose
- additional fall of plasma level over the next three hours [2]: 1%

Substance: YVGVAPGVGVAPGVGVAPG [SP-28, H2 N-Tyr-Val-Gly-Val-Ala-Pro-Gly-Val-Gly-Val-Ala-Pro-Gly-Val-Gly-Val-Ala-Pro- Gly-OH]
- localization of 125I-labelled peptide on onlay autoradiograph of the aorta [1]: accumulated focally at the leading edges of regenerating endothelial tissue
- plasma level leveled off to [2]: 3-6%
- plasma level after one hour [2]: less than 10 % of the injected dose
- additional fall of plasma level over the next three hours [2]: 1%

Substance: YVPGVGVPGVGVPGVGVPGVG-NH2 [SP-30, H2 N-Tyr-Val-Pro-Gly-Val-Gly-Val-Pro-Gly-Val-Gly-Val-Pro-Gly-Val-Gly-Val-pro- Gly-Val-Gly-CONH2]
- localization of 125I-labelled peptide on onlay autoradiograph of the aorta [1]: accumulated focally at the leading edges of regenerating endothelial tissue
- plasma level leveled off to [2]: 3-6%
- plasma level after one hour [2]: less than 10 % of the injected dose
- additional fall of plasma level over the next three hours [2]: 1%
